Test results as given in patent publication US20100216249A1, “DNA-Based Biosensors” (ISIS INNOVATION LIMITED, priority 2007, published 2010).

Columns and labels:
lacR = lacR (Escherichia coli, UniProt P03023); test: sensing a lactose analog (IPTG) using DNA biosensors (lacR-dependent DNA coincidence); assay type: binding, bacteria
From the text: (§1) An example of sensing the concentration of a small molecule using protein-dependent DNA coincidence. In the absence (or low concentration) of the molecule to be sensed (yellow triangle), the transcription factor binds to DNA with high affinity and gives rise to DNA coincidence detected by single-molecule fluorescence.
FIG. 16. Sensing a lactose analog (IPTG) using DNA biosensors. […] A plot of the number of molecules with intermediate stoichiometry can be used as a calibration curve to identify the concentration of the small molecule, provided that the concentration is not much higher or much lower than the Kd for the interaction of the small molecule with the DNA-binding protein.

lac repressor (lacR) = lac repressor (lacR) (Escherichia coli, UniProt P03023); test: Sensing a lactose analog (IPTG) using DNA biosensors: IPTG-dependent loss of lacR-assembled full DNA site, detected by single-molecule fluorescence (protein-dependent DNA coincidence); assay type: binding, bacteria; conditions: FIG. 16; IPTG interaction with lacR (tetrameric bacterial repressor); fraction of bursts with intermediate stoichiometry vs IPTG concentration
lac repressor (lacR), sequence (P03023 whole entry): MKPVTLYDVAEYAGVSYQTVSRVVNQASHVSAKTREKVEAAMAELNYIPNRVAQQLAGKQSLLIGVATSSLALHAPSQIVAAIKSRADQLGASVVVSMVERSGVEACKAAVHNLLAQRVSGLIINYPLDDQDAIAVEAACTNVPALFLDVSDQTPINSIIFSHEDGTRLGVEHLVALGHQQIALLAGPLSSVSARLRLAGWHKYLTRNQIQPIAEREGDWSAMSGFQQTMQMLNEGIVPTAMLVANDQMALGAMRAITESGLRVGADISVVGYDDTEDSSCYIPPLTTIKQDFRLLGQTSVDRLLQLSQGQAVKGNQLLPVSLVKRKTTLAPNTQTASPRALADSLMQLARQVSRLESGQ
From the text: For the purposes of our assay, the fluorophores can be placed far from the protein binding site (as long as the fluorophores are spaced by less than approximately 200 base pairs); as such, there is no perturbation of protein-DNA binding and no information about the exact structure of the protein-DNA complex is necessary. The concept is described in FIG. 3. In the absence of a DNA-binding protein, for example, a dimeric protein, such as a dimeric transcription factor, two DNA fragments with short and complementary single-stranded DNA tails diffuse independently in solution (top panel). In the presence of a DNA-binding protein that binds specifically to the fully assembled DNA site, the two DNA fragments diffuse as a single molecular complex (a 1:1 donor-acceptor species); such a species can be easily differentiated from the free DNA half-sites and can be counted, giving information about the concentration of the specific DNA-binding protein. […]
as §1, with “fluorescence. […]” for “fluorescence.”

lacR, sequence (P03023 whole entry): as above

CC(C)S[C@@H]1O[C@H](CO)[C@H](O)[C@H](O)[C@H]1O [IPTG]
lacR assembly of the full DNA site (lacR; high concentration of IPTG, relative fraction of bursts with intermediate stoichiometry decreases): does not assemble the full site | lacR assembly of the full DNA site (lacR; low concentration of IPTG, relative fraction of bursts with intermediate stoichiometry increases): does bind and assemble the full site | Kd (lac repressor (lacR)): 1 to 2 µM
